PMC11274943, “Discovery of Benzisothiazolone Derivatives as Bifunctional Inhibitors of HIV-1 Reverse Transcriptase DNA Polymerase and Ribonuclease H Activities” (Biomolecules, 2024)

Test system: G190A HIV-1 RT DNA-dependent DNA polymerase activity
Assay: biochemical
Assay type: biochemical
Details: G190A RT; fold resistance IC50 mutant/IC50 WT
Description: WT (wild-type) RT, and RTs harboring the NNRTI-resistant mutations K101E, K103N, Y181C, Y188C, G190A and P236L, were overexpressed and purified to homogeneity as described previously. The RT concentration was determined spectrophotometrically at 280 nm using an absorbance coefficient of 260,450 M^−1·cm^−1. The 7-hydroxy tropolone derivative 19,616 (2,7-dihydroxy 2,4,6-cyclo-heptatrien-1-one) was purchased from Molecular Diversity Preservation International (Basel, Switzerland). […] The benzisothiazolone derivatives were procured from MolPort (New York, NY, USA) or Enamine (Kyiv, Ukraine). The DNA and RNA oligonucleotides were synthesized and purified by Integrated DNA Technologies (Coralville, IA, USA). All other reagents were of the highest quality available and were used without further purification.
DDDP assays were also performed using a QuantiFluor ONE based spectrophotometric assay to detect double-stranded DNA synthesized by recombinant HIV-1 RT [14]. The reaction contained 40 nM of a template/primer comprising a 200 nt DNA template (5′-[…] […]-[…]-[…] […] […]-3′) annealed to an 18-nucleotide DNA primer (5′-[…]-3′), and a mix of 50 mM Tris-HCl pH 7.8, 50 mM NaCl, 10 mM MgCl2 and 50 µM dNTP. The reactions were stopped after 45 min by adding the detection reagent containing 1 × Quant-Fluor One (Promega) and 12.5 mM ethylenediaminetet-raacetic acid; the samples were transferred to a 96-well black plate, and fluorescence was measured at excitation/emission (490/535 nm).

| Structure (SMILES) | Inhibition of RT DNA polymerase activity Fold-R |
| --- | --- |
| CCOC(=O)Cc1csc(-n2sc3ccccc3c2=O)n1 [Compound 2, ethyl 2-(2-(3-oxobenzo[d]isothiazol-2(3H)-yl)thiazol-4-yl)acetate] | 0.7 |
| CCN(CC)S(=O)(=O)c1cccc(-n2sc3ccccc3c2=O)c1 [Compound 4, N,N-diethyl-3-(3-oxobenzo[d]isothiazol-2(3H)-yl)benzenesulfonamide] | 1.5 |
